# Assay results: patent publication US11053204B2, “Pyrimidinyloxy benzene derivatives as herbicides” (FMC Corporation, priority 2015, dated 2021)
# Columns and labels:
# Format in all cases: in vivo
# [1] = tested on: soybean (Glycine max); experiment: Test C postemergence, plant response rating; conditions: for Plant response rating, Soybean: scale 0 to 100; for Soybean plant response rating: scale 0 to 100 (0 no effect, 100 complete control)
# Procedure, shortened: (§1)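 Greenhouse plants rated visually against untreated controls 13–15 d after treatment, scale 0 = no effect to 100 = complete control. Postemergence sprays went onto potted plants 2–18 cm tall (1–4 leaves); preemergence sprays onto soil freshly sown in loam–sand or silt loam, chemicals formulated in non-phytotoxic solvent with surfactant.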
# [2] = tested on: kochia (Kochia scoparia); experiment: Test C postemergence, plant response rating; conditions: for Plant response rating, Kochia: scale 0 to 100; for Kochia plant response rating: scale 0 to 100 (0 no effect, 100 complete control)
# Procedure, shortened: as §1
# [3] = tested on: ryegrass, Italian (Italian ryegrass, Lolium multiflorum); experiment: Test C postemergence, plant response rating; conditions: for Plant response rating, Ryegrass, Italian: scale 0 to 100; for Ryegrass, Italian plant response rating: scale 0 to 100 (0 no effect, 100 complete control)
# Procedure, shortened: as §1
# [4] = tested on: foxtail, giant (giant foxtail, Setaria faberii); experiment: Test C postemergence, plant response rating; conditions: for Plant response rating, Foxtail, Giant: scale 0 to 100; for Foxtail, Giant plant response rating: scale 0 to 100 (0 no effect, 100 complete control)
# Procedure, shortened: as §1
# [5] = tested on: oilseed rape (Brassica napus); experiment: Test C postemergence, plant response rating; conditions: for Plant response rating, Oilseed Rape: scale 0 to 100; for Oilseed Rape plant response rating: scale 0 to 100 (0 no effect, 100 complete control)
# Procedure, shortened: as §1
# [6] = tested on: nutsedge, yellow (yellow nutsedge, Cyperus esculentus); experiment: Test C postemergence, plant response rating; conditions: for Plant response rating, Nutsedge, Yellow: scale 0 to 100; for Nutsedge, Yellow plant response rating: scale 0 to 100 (0 no effect, 100 complete control)
# Procedure, shortened: as §1
# [7] = tested on: lambsquarters (Chenopodium album); experiment: Test C postemergence, plant response rating; conditions: for Plant response rating, Lambsquarters: scale 0 to 100; for Lambsquarters plant response rating: scale 0 to 100 (0 no effect, 100 complete control)
# Procedure, shortened: as §1
# [8] = tested on: barnyardgrass (Echinochloa crus-galli); experiment: Test C postemergence, plant response rating; conditions: for Plant response rating, Barnyardgrass: scale 0 to 100; for Barnyardgrass plant response rating: scale 0 to 100 (0 no effect, 100 complete control)
# Procedure, shortened: as §1
# [9] = tested on: morningglory (Ipomoea coccinea); experiment: Test C postemergence, plant response rating; conditions: for Plant response rating, Morningglory: scale 0 to 100; for Morningglory plant response rating: scale 0 to 100 (0 no effect, 100 complete control)
# Procedure, shortened: as §1
# [10] = tested on: wheat (winter wheat, Triticum aestivum); experiment: Test C postemergence, plant response rating; conditions: for Plant response rating, Wheat: scale 0 to 100; for Wheat plant response rating: scale 0 to 100 (0 no effect, 100 complete control)
# Procedure, shortened: as §1
# [11] = tested on: corn (Zea mays); experiment: Test C postemergence, plant response rating; conditions: for Plant response rating, Corn: scale 0 to 100; for Corn plant response rating: scale 0 to 100 (0 no effect, 100 complete control)
# Procedure, shortened: as §1
# [12] = tested on: chickweed (common chickweed, Stellaria media); experiment: Test C postemergence, plant response rating; conditions: for Plant response rating, Chickweed: scale 0 to 100; for Chickweed plant response rating: scale 0 to 100 (0 no effect, 100 complete control)
# Procedure, shortened: as §1
# [13] = tested on: oat, wild (wild oat Avena fatua); experiment: Test C postemergence, plant response rating; conditions: for Plant response rating, Oat, Wild: scale 0 to 100; for Oat, Wild plant response rating: scale 0 to 100 (0 no effect, 100 complete control)
# Procedure, shortened: as §1
# [14] = tested on: crabgrass, large (large crabgrass, Digitaria sanguinalis); experiment: Test C postemergence, plant response rating; conditions: for Plant response rating, Crabgrass, Large: scale 0 to 100; for Crabgrass, Large plant response rating: scale 0 to 100 (0 no effect, 100 complete control)
# Procedure, shortened: as §1
# [15] = tested on: blackgrass (Alopecurus myosuroides); experiment: Test C postemergence, plant response rating; conditions: for Plant response rating, Blackgrass: scale 0 to 100; for Blackgrass plant response rating: scale 0 to 100 (0 no effect, 100 complete control)
# Procedure, shortened: as §1
# [16] = tested on: kochia (Kochia scoparia); experiment: Test A preemergence, visual injury rating; conditions: 0 to 100 scale (0 no effect, 100 complete control)
# Procedure, shortened: (§2)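 Scoring: eye-based comparison with untreated controls, 0 for no effect through 100 for complete control, at about day 10. Treatments: directed soil spray preemergence; foliar spray postemergence on 2–10 cm plants at the one- to two-leaf stage. Medium: loam soil with sand.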
# [17] = tested on: barnyardgrass (Echinochloa crus-galli); experiment: Test A preemergence, visual injury rating; conditions: 0 to 100 scale (0 no effect, 100 complete control)
# Procedure, shortened: as §2
smiles,measurement,setting,value
O=C(OCC(F)(F)F)c1c(Br)cccc1Oc1ncc(Cl)cn1 [Compound 35],"Plant response rating, Soybean",[1]; 16 g ai/ha,25
same,"Plant response rating, Soybean",[1]; 31 g ai/ha,25
same,Soybean plant response rating,[1]; 62 g ai/ha,35
same,Soybean plant response rating,[1]; 125 g ai/ha,35
same,"Plant response rating, Kochia",[2]; 16 g ai/ha,5
same,"Plant response rating, Kochia",[2]; 31 g ai/ha,40
same,Kochia plant response rating,[2]; 62 g ai/ha,60
same,Kochia plant response rating,[2]; 125 g ai/ha,90
same,"Plant response rating, Ryegrass, Italian",[3]; 16 g ai/ha,0
same,"Plant response rating, Ryegrass, Italian",[3]; 31 g ai/ha,0
same,"Ryegrass, Italian plant response rating",[3]; 62 g ai/ha,5
same,"Ryegrass, Italian plant response rating",[3]; 125 g ai/ha,5
same,"Plant response rating, Foxtail, Giant",[4]; 16 g ai/ha,5
same,"Plant response rating, Foxtail, Giant",[4]; 31 g ai/ha,10
same,"Foxtail, Giant plant response rating",[4]; 62 g ai/ha,10
same,"Foxtail, Giant plant response rating",[4]; 125 g ai/ha,20
same,"Plant response rating, Oilseed Rape",[5]; 16 g ai/ha,20
same,"Plant response rating, Oilseed Rape",[5]; 31 g ai/ha,30
same,Oilseed Rape plant response rating,[5]; 62 g ai/ha,50
same,Oilseed Rape plant response rating,[5]; 125 g ai/ha,65
same,"Plant response rating, Nutsedge, Yellow",[6]; 16 g ai/ha,0
same,"Plant response rating, Nutsedge, Yellow",[6]; 31 g ai/ha,0
same,"Nutsedge, Yellow plant response rating",[6]; 62 g ai/ha,0
same,"Nutsedge, Yellow plant response rating",[6]; 125 g ai/ha,5
same,"Plant response rating, Lambsquarters",[7]; 16 g ai/ha,50
same,"Plant response rating, Lambsquarters",[7]; 31 g ai/ha,40
same,Lambsquarters plant response rating,[7]; 62 g ai/ha,65
same,Lambsquarters plant response rating,[7]; 125 g ai/ha,70
same,"Plant response rating, Barnyardgrass",[8]; 16 g ai/ha,5
same,"Plant response rating, Barnyardgrass",[8]; 31 g ai/ha,5
same,Barnyardgrass plant response rating,[8]; 62 g ai/ha,10
same,Barnyardgrass plant response rating,[8]; 125 g ai/ha,15
same,"Plant response rating, Morningglory",[9]; 16 g ai/ha,40
same,"Plant response rating, Morningglory",[9]; 31 g ai/ha,50
same,Morningglory plant response rating,[9]; 62 g ai/ha,60
same,Morningglory plant response rating,[9]; 125 g ai/ha,60
same,"Plant response rating, Wheat",[10]; 16 g ai/ha,0
same,"Plant response rating, Wheat",[10]; 31 g ai/ha,0
same,Wheat plant response rating,[10]; 62 g ai/ha,0
same,Wheat plant response rating,[10]; 125 g ai/ha,0
same,"Plant response rating, Corn",[11]; 16 g ai/ha,5
same,"Plant response rating, Corn",[11]; 31 g ai/ha,10
same,Corn plant response rating,[11]; 62 g ai/ha,20
same,Corn plant response rating,[11]; 125 g ai/ha,20
same,"Plant response rating, Chickweed",[12]; 16 g ai/ha,5
same,"Plant response rating, Chickweed",[12]; 31 g ai/ha,40
same,Chickweed plant response rating,[12]; 62 g ai/ha,45
same,Chickweed plant response rating,[12]; 125 g ai/ha,50
same,"Plant response rating, Oat, Wild",[13]; 16 g ai/ha,0
same,"Plant response rating, Oat, Wild",[13]; 31 g ai/ha,0
same,"Oat, Wild plant response rating",[13]; 62 g ai/ha,0
same,"Oat, Wild plant response rating",[13]; 125 g ai/ha,0
same,"Plant response rating, Crabgrass, Large",[14]; 16 g ai/ha,10
same,"Plant response rating, Crabgrass, Large",[14]; 31 g ai/ha,10
same,"Crabgrass, Large plant response rating",[14]; 62 g ai/ha,15
same,"Crabgrass, Large plant response rating",[14]; 125 g ai/ha,10
same,"Plant response rating, Blackgrass",[15]; 16 g ai/ha,0
same,"Plant response rating, Blackgrass",[15]; 31 g ai/ha,0
same,Blackgrass plant response rating,[15]; 62 g ai/ha,10
same,Blackgrass plant response rating,[15]; 125 g ai/ha,10
same,Kochia plant response rating,[16]; 125 g ai/ha,30
same,Kochia plant response rating,[16]; 500 g ai/ha,80
same,Barnyardgrass plant response rating,[17]; 125 g ai/ha,70
same,Barnyardgrass plant response rating,[17]; 500 g ai/ha,90
